Source: ChEMBL document CHEMBL1150571, “Hipposulfates A and B, new sesterterpene sulfates from an Okinawan sponge, Hippospongia cf. metachromia” (J Nat Prod, 2001)

Legend:
Assay type in all cases: functional, cell-based
[1] = test system: HT-29; test: Cytotoxicity against human HT-29 cells
[2] = test system: A549; test: Cytotoxicity against human A549 cells
[3] = test system: SK-MEL-28; test: Cytotoxicity against human SK-MEL-28 cells
[4] = test system: P388; test: Cytotoxicity against mouse P388 cells

Measured: IC50

CC1=CC[C@H]2C(C)(C)CCC[C@]2(C)[C@H]1CC/C(=C\OS(=O)(=O)[O-])CCC/C(C)=C/Cc1cc(O)ccc1O.[Na+] [HIPPOSULFATE A]
2 µg/mL: [1] | [2] | [3] | [4]
